From US7994202B2, “Bicyclic nitrogen-containing heterocyclic compounds” (Asahi Kasei Pharma Corporation, priority 2008, dated 2011)

Key:
human EP1 receptor [1] = biological target: T1, human EP1 receptor (Homo sapiens, UniProt P34995); experiment: Antagonist activity using cells expressing human EP1 receptor (SRE-luciferase reporter activity, PGE2 10 nM); assay type: cell-based; conditions: HEK293 cells stably expressing human EP1 receptor, 6 hours, read-out: IC50 value in the measurement of antagonist activity using human EP1 receptor expressing cells
T1 construct: expressed in transfected cells
T1 sequence (P34995 1-402): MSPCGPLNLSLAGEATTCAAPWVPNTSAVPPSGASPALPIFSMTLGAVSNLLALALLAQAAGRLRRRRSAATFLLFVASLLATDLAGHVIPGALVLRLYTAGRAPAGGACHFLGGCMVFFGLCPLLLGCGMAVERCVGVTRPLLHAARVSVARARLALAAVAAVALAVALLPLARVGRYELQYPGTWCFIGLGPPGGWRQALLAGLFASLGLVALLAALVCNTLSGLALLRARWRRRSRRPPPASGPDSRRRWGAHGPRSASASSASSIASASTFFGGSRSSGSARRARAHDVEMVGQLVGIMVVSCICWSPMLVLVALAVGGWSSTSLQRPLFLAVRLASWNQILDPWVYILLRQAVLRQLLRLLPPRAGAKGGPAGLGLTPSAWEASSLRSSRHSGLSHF
Source text: (§1) Measurement of an Antagonist Activity by Using Cells Expressing Human EP1 Receptor
As a result of searching Refseq Database for prostaglandin E receptor, genetic information of human EP1 (NM_000955) receptor was obtained. Based on this sequence information, human EP1 receptor gene was cloned by PCR using human cDNA as a template and by an ordinary method to give human EP1 receptor. Then, HEK293 in which the receptor is stably expressed was established, together with a reporter gene (SRE-Luciferase) in which serum responsible element (SRE) is added at the upstream region of firefly luciferase gene. The resulting cells were seeded to a 96 well plate (5×10^4 cells/well) and cultured for one day. To the plate, PGE2 (200 nM, final concentration 10 nM) and the test compound (in an amount of 1/20, 20× of the final concentration) were added to initiate the reaction. After allowing the reaction to proceed at 37° C. for 6 hours, the medium was aspirated off, added with a luminescent agent and the reporter activity was measured. […]

human EP1 receptor [2] = biological target: T1, human EP1 receptor; experiment: Antagonist activity using cells expressing human EP1 receptor (intracellular Ca2+ assay, Fura 2-AM); assay type: cell-based; conditions: HEK293 cells stably expressing human EP1 receptor, PGE2 10 nM
Procedure: as §1
Cells expressing human EP1 receptor were suspended in an assay buffer to the concentration of 5×10^6 cells/ml, added with Puronic F-127 (final concentration 0.2%), and Fura 2-AM (final concentration 5 uM), followed by incubation at 37° C. for 30 minutes. After washing twice with the assay buffer, the cells were again suspended in the assay buffer to 1×10^6 cells/60 ul, and then transferred to a 96 well UV plate (1×10^6 cells/60 ul/well). Thereafter, by using a fluorescent chemical screening system (FDSS4000, Hamamatsu Photonics K.K.), intracellular Ca^2+ concentration was measured after adding 20 ul of each of the test compounds and PGE2 (5× of the final concentration for both). Ca^2+ concentration was measured by determining fluorescence intensity after irradiation with two excitation wavelengths, i.e., 340 and 380 nm.
Furthermore, EP1 antagonist activity was calculated as a ratio (%) of inhibiting increase in intracellular Ca^2+ concentration by PGE2 (10 nM).
Assay buffer: 20 mM HEPES/KOH (pH 7.4), 115 mM NaCl, 5.4 mM KCl, 0.8 mM MgCl2, 0.8 mM CaCl2, 13.8 mM D-glucose, 0.1% BSA

SD rats = experiment: Action of extending interval of micturition in rat in wakefulness II (0.3% acetic acid-induced cystitis); assay type: in vivo; conditions: male SD rats in wakefulness, 0.3% acetic acid cystitis, intravenous
Source text: SD rats (Charles River Laboratories Japan, Inc., male) were employed as experimental animals. Each rat was put under anesthesia by inhalation of 2% isoflurane (laughing gas:oxygen=7:3), and then was fixed in the supine position. Anesthesia was maintained by the inhalation of 2% isoflurane. The abdominal part was incised along the midline, and the urinary bladder was exposed from the intraperitoneal cavity. The vertex vesicae part was subjected to a small incision, and a polyethylene tube (PE-50: Becton Dickinson and Company) was inserted into the bladder and fixed. […] Thereafter, while physiological saline warmed to 37° C. was injected to the other end of the tube inserted into the bladder through one branch of a three-way stopcock at a rate of 3.0 mL/hr, the internal pressure of the bladder was continuously recorded from another branch using a pressure amplifier through a pressure transducer. The excreted urine was cumulatively accumulated in a vessel on a digital balance, and the weight change was simultaneously measured. […] The value obtained before the administration was taken from an average value of the values measured for 30 minutes before the administration, and the value obtained after the administration was taken from an average value of the values measured for 60 minutes immediately after the administration. […]

human EP1 receptor [3] = biological target: T1, human EP1 receptor; experiment: Receptor binding test using cells expressing human EP1 receptor ([3H]PGE2 binding inhibition, membrane fraction); conditions: membrane fraction of HEK293 cells expressing human EP1 receptor, [3H]PGE2 1 nM; read-out: Ki value in the measurement of [3H]PGE2 binding inhibitory activity
Procedure: Receptor Binding Test Using Cells Expressing Human EP1 Receptor
Inhibitory activity of the test compounds on binding of [^3H]PGE2 in HEK293 cells stably expressing human EP1 receptor was measured.
HEK293 cells, which stably express human EP1 receptor, were established by using the gene for human EP1 receptor, and then a membrane fraction was prepared therefrom. Thus-prepared membrane fraction was incubated at 30° C. for 90 minutes with a reaction solution (200 μL/well) which includes the test compound and [^3H]PGE2. Upon the completion of the reaction, the reaction solution was aspirated off under reduced pressure, and the [^3H]PGE2 bound to the membrane fraction was trapped by using Unifilter Plateg CF/C (manufactured by Packard) and the bound radioactivity was counted with a liquid scintillator.
Kd value was obtained from a Scatchard plot. Non-specific binding was obtained from the binding in the presence of an excess amount (10 μM) of non-labeled PGE2. For the measurement of an inhibitory activity of the test compound on [^3H]PGE2 binding, [^3H]PGE2 (1 nM) and various concentrations of the test compound were added. Meanwhile, for all of the reactions, the buffer as described below was used.
Buffer; 10 mM MES/NaOH (pH 6.0), 10 mM MgCl2, 1 mM EDTA, 0.1% BSA
Dissociation constant of the compounds, i.e., Ki, was obtained according to the following equation. […]

## O=C(O)c1csc(Cn2nc(-c3ccccc3)c3ccccc32)n1 [Exp.7, 2-{(3-phenyl-1H-indazol-1-yl)methyl}thiazole-4-carboxylic acid]
Human EP1 receptor [1]
  IC50: 0.02 to 0.1 µM

## Cc1ccccc1-c1nn(-c2nc(C(=O)O)cs2)c2ccccc12 [Exp.9]
Human EP1 receptor [1]
  IC50: ≤ 0.02 µM
Human EP1 receptor [2]
  IC50: 0.1 to 0.3 µM

## O=C(O)c1csc(-n2nc(-c3cccc(O)c3)c3ccccc32)n1 [Exp.16]
Human EP1 receptor [1]
  IC50: 0.02 to 0.1 µM
Human EP1 receptor [2]
  IC50: 0.1 to 0.3 µM

## O=C(O)c1csc(-n2nc(-c3ccccc3)c3ccc(C(F)(F)F)cc32)n1 [Exp.77]
SD rats
  amount of micturition: increase in the amount of micturition
SD rats; 60 minutes after administration
  micturition interval extension: ≥ 30%

## O=C(O)c1ccc(-n2nc(-c3ccccc3)c3ccccc32)s1 [Exp.94]
Human EP1 receptor [1]
  IC50: 0.1 to 0.5 µM

## O=C(O)c1csc(-n2nc(-c3ccccc3)c3c2CC(C(F)(F)F)CC3)n1 (stereo not drawn) [Exp.102]
Human EP1 receptor [1]
  IC50: ≤ 0.02 µM

## O=C(O)c1csc(Cn2nc(-c3ccccc3)c3ccc(C(F)(F)F)cc32)n1 [Exp.104]
Human EP1 receptor [1]
  IC50: ≤ 0.02 µM

## O=C(O)c1csc(-n2nc(C3=CCCCO3)c3ccc(C(F)(F)F)cc32)n1 [Exp.105]
Human EP1 receptor [1]
  IC50: ≤ 0.02 µM
Human EP1 receptor [2]
  IC50: ≤ 0.1 µM
Human EP1 receptor [3]
  Ki: ≤ 0.1 µM

## O=C(O)c1csc(-n2nc(-c3ccccc3)c3ccc(C(F)(F)F)nc32)n1 [Exp.106]
Human EP1 receptor [1]
  IC50: ≤ 0.02 µM
Human EP1 receptor [2]
  IC50: ≤ 0.1 µM
Human EP1 receptor [3]
  Ki: ≤ 0.1 µM

## C=Cc1ccc2c(-c3ccccc3)nn(-c3nc(C(=O)OCC)cs3)c2c1 [Exp.116, Ethyl 2-(3-phenyl-6-vinyl-1H-indazol-1-yl)thiazole-4-carboxylate]
Human EP1 receptor [1]
  IC50: 0.02 to 0.1 µM

## O=C(O)c1ccc2c(-c3ccccc3)nn(-c3nc(C(=O)O)cs3)c2c1 [Exp.119, 2-(6-Carboxy-3-phenyl-1H-indazol-1-yl)thiazole-4-carboxylic acid]
Human EP1 receptor [1]
  IC50: ≤ 0.02 µM

## CC(=O)Nc1ccc2c(-c3ccccc3)nn(-c3nc(C(=O)O)cs3)c2c1 [Exp.122]
Human EP1 receptor [1]
  IC50: 0.1 to 0.5 µM

## CN(C)c1ccc2c(-c3ccccc3)nn(-c3nc(C(=O)O)cs3)c2c1 [Exp.154]
Human EP1 receptor [1]
  IC50: ≤ 0.02 µM

## O=C(O)c1csc(-n2nc(-c3ccccc3)c3ncc(C(F)(F)F)cc32)n1 [Exp.164]
Human EP1 receptor [1]
  IC50: ≤ 0.02 µM

## O=C(O)c1csc(-n2nc(-c3ccccc3)c3ccc(Sc4ccc(OC(F)(F)F)cc4)nc32)n1 [Exp.177]
Human EP1 receptor [1]
  IC50: 0.1 to 0.5 µM

## O=C(O)c1csc(-n2nc(-c3ccccc3)c3ccc(Sc4cccc(C(F)(F)F)c4)nc32)n1 [Exp.179]
Human EP1 receptor [1]
  IC50: 0.02 to 0.1 µM

## O=C(O)c1csc(-n2nc(-c3cccs3)c3ccccc32)n1 [Exp. 51]
Human EP1 receptor [1]
  IC50: 0.02 to 0.1 µM

## N#Cc1ccc2c(-c3ccccc3)nn(-c3nc(C(=O)O)cs3)c2c1 [Exp. 118, 2-(6-Cyano-3-phenyl-1H-indazol-1-yl)thiazole-4-carboxylic acid]
Human EP1 receptor [1]
  IC50: 0.02 to 0.1 µM

## Cn1cncc1C(=O)Nc1ccc2c(-c3ccccc3)nn(-c3nc(C(=O)O)cs3)c2c1 [Exp. 130]
Human EP1 receptor [1]
  IC50: 0.1 to 0.5 µM

## O=C(O)c1csc(-n2nc(-c3ccccc3)c3ccc(NC(=O)C4CCCC4)cc32)n1 [Exp. 131]
Human EP1 receptor [1]
  IC50: 0.1 to 0.5 µM

## O=C(O)c1csc(-n2nc(-c3ccccc3)c3ccc(NC(=O)C45CC6CC(CC(C6)C4)C5)cc32)n1 [Exp. 133]
Human EP1 receptor [1]
  IC50: 0.1 to 0.5 µM

## O=C(O)c1csc(-n2nc(-c3ccccc3)c3ccc(NC(=O)C4CC4)cc32)n1 [Exp. 135]
Human EP1 receptor [1]
  IC50: 0.1 to 0.5 µM

## CC(C)S(=O)(=O)Nc1ccc2c(-c3ccccc3)nn(-c3nc(C(=O)O)cs3)c2c1 [Exp. 141]
Human EP1 receptor [1]
  IC50: 0.1 to 0.5 µM

## CCC(C)S(=O)(=O)Nc1ccc2c(-c3ccccc3)nn(-c3nc(C(=O)O)cs3)c2c1 (stereo not drawn) [Exp. 142]
Human EP1 receptor [1]
  IC50: 0.1 to 0.5 µM

## O=C(O)c1csc(-n2nc(-c3ccccc3)c3ccc(NCc4ccccc4F)cc32)n1 [Exp. 145]
Human EP1 receptor [1]
  IC50: 0.1 to 0.5 µM

## O=C(O)c1csc(-n2nc(-c3ccccc3)c3ccc(NCc4cccc(F)c4)cc32)n1 [Exp. 146]
Human EP1 receptor [1]
  IC50: 0.1 to 0.5 µM

## O=C(O)c1csc(-n2nc(-c3ccccc3)c3ccc(NCc4ccc(F)cc4)cc32)n1 [Exp. 147]
Human EP1 receptor [1]
  IC50: 0.1 to 0.5 µM

## O=C(O)c1csc(-n2nc(-c3ccccc3)c3ccc(NCc4ccccn4)cc32)n1 [Exp. 148]
Human EP1 receptor [1]
  IC50: 0.02 to 0.1 µM

## O=C(O)c1csc(-n2nc(-c3ccccc3)c3ccc(NCc4cccnc4)cc32)n1 [Exp. 149]
Human EP1 receptor [1]
  IC50: 0.1 to 0.5 µM

## O=C(O)c1csc(-n2nc(-c3ccccc3)c3ccc(NCC4CCOC4)cc32)n1 (stereo not drawn) [Exp. 150]
Human EP1 receptor [1]
  IC50: 0.1 to 0.5 µM

## CCC(C)CNc1ccc2c(-c3ccccc3)nn(-c3nc(C(=O)O)cs3)c2c1 (stereo not drawn) [Exp. 151]
Human EP1 receptor [1]
  IC50: 0.1 to 0.5 µM

## O=C(O)c1csc(-n2nc(-c3ccccc3)c3ccc(NCCc4ccccc4)cc32)n1 [Exp. 152]
Human EP1 receptor [1]
  IC50: 0.02 to 0.1 µM

## O=C(O)c1csc(-n2nc(-c3ccccc3)c3ccc(Cl)cc32)n1 [Exp. 156]
Human EP1 receptor [1]
  IC50: ≤ 0.02 µM

## O=C(O)c1csc(-n2nc(-c3ccccc3)c3ccc(Br)cc32)n1 [Exp. 157]
Human EP1 receptor [1]
  IC50: ≤ 0.02 µM

## O=C(O)c1csc(-n2nc(-c3ccccc3)c3ccc(I)cc32)n1 [Exp. 158]
Human EP1 receptor [1]
  IC50: ≤ 0.02 µM

## C/C=C/c1ccc2c(-c3ccccc3)nn(-c3nc(C(=O)O)cs3)c2c1 [Exp. 159]
Human EP1 receptor [1]
  IC50: ≤ 0.02 µM

## C/C=C\c1ccc2c(-c3ccccc3)nn(-c3nc(C(=O)O)cs3)c2c1 [Exp. 160]
Human EP1 receptor [1]
  IC50: ≤ 0.02 µM

## C=Cc1ccc2c(-c3ccccc3)nn(-c3nc(C(=O)O)cs3)c2c1 [Exp. 162]
Human EP1 receptor [1]
  IC50: ≤ 0.02 µM

## CCSc1ccc2c(-c3ccccc3)nn(-c3nc(C(=O)O)cs3)c2n1 [Exp. 165]
Human EP1 receptor [1]
  IC50: 0.1 to 0.5 µM

## CC(C)C(C)Sc1ccc2c(-c3ccccc3)nn(-c3nc(C(=O)O)cs3)c2n1 (stereo not drawn) [Exp. 166]
Human EP1 receptor [1]
  IC50: 0.1 to 0.5 µM

## O=C(O)c1csc(-n2nc(-c3ccccc3)c3ccc(N4CCC4)nc32)n1 [Exp. 167]
Human EP1 receptor [1]
  IC50: 0.02 to 0.1 µM

## O=C(O)c1csc(-n2nc(-c3ccccc3)c3ccc(Sc4ccccc4F)nc32)n1 [Exp. 175]
Human EP1 receptor [1]
  IC50: 0.02 to 0.1 µM

## O=C(O)c1csc(-n2nc(-c3ccccc3)c3ccc(SCc4ccccc4)nc32)n1 [Exp. 176]
Human EP1 receptor [1]
  IC50: 0.1 to 0.5 µM

## O=C(O)c1csc(-n2nc(-c3ccccc3)c3ccc(Sc4cccc(O)c4)nc32)n1 [Exp. 178]
Human EP1 receptor [1]
  IC50: 0.02 to 0.1 µM
